Structures are written as SMILES.

This assay addresses T1, human M4 muscarinic acetylcholine receptor (Homo sapiens, UniProt P08173).
T1 construct: expressed in transfected cells; host or cells: CHO-K1
T1 sequence (P08173 1-479): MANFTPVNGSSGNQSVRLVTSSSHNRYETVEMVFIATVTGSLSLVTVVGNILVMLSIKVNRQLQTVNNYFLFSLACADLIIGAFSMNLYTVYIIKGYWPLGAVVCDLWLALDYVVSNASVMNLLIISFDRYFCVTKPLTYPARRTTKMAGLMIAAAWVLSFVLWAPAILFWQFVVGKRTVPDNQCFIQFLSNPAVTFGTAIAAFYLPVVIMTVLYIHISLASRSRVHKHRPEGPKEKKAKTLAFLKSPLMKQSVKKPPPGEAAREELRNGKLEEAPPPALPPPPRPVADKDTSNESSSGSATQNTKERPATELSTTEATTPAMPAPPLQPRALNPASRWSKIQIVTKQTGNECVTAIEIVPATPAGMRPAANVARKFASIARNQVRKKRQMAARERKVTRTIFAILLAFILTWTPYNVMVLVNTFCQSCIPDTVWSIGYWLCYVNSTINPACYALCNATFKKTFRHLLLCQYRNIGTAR
The experiment in a line: human FLIPR-based M4 PAM assay (CHO-K1 cells with human M4 receptor and Gaqi5, calcium dye fluorescence). It is filed as cell-based. The following applies: inflection point (IP) of dose response curve, acetylcholine added at 20% of maximum response, read-out: M4 FLIPPR Hu IP. The method, then:
(§1) In a typical experiment the M4 muscarinic acetylcholine receptor modulating activity of the compounds of the present invention was determined in accordance with the following experimental method. CHO-K1 cells stably transfected with human M4 receptor and chimeric G-protein Gaqi5 (Coward P, et al., Analytical Biochemistry, 270:242-248 (1999)) are thawed from liquid N2 storage, resuspended in growth medium, plated in black, clear bottom 384 well plates, and incubated 16-20 hours at 37° C., 5% CO2. On the day of assay, growth medium is removed, the cells are washed 2 times with wash buffer, and cells are incubated in dye loading buffer at 37° C., 5% CO2 for ˜1 hour. Following dye loading the cell plates are placed in a FLIPR Tetra instrument and while monitoring dye fluorescence (excitation 470-495 […]), 10 uL of test substance at increasing concentrations is added, and fluorescence values are recorded for 4 min. Next, 10 uL of acetylcholine is added (final concentration calculated so as to achieve 20% of the maximum acetycholine response), and the fluorescence reading is continued for 3.5 min. In some cases, a third addition of acetylcholine (final concentration calculated to achieve 70% of the maximal acetylcholine response) is performed. The resulting dose response curves are fit to a 4 parameter logistic equation and the final result is determined as the inflection point (IP) of the curve
as §1, with “CHO-K1” for “In a typical experiment the M4 muscarinic acetylcholine receptor modulating activity of the compounds of the present invention was determined in accordance with the following experimental method. CHO-K1”, “Gaqi5” for “Gaqi5 (Coward P, et al., Analytical Biochemistry, 270:242-248 (1999))”, “performed.” for “performed. The resulting dose response curves are fit to a 4 parameter logistic equation and the final result is determined as the inflection point (IP) of the curve”
`Cc1ccc(-c2cnn(CC3CCCC3)c2)c(-c2ccc3oc(C)nc3c2)n1` [Example 11, 5-(3-(1-(cyclopentylmethyl)-1H-pyrazol-4-yl)-6-methylpyridin-2-yl)-2-methylbenzo[d]oxazole]: the EC50 stood at 46 nM.

With `COc1cc2ccc(-c3nc(C)ccc3-c3cnn(CC4CCCC4)c3F)cc2nn1` [Example 12, 7-(3-(1-(cyclopentylmethyl)-5-fluoro-1H-pyrazol-4-yl)-6-methylpyridin-2-yl)-3-methoxycinnoline], the EC50 was determined as 7 nM.

Regarding `Cc1ccc(-c2cnn(CC3CCCC3)c2)c(-c2ccc3cc(F)cnc3c2)n1` [Example 13, 7-(3-(1-(cyclopentylmethyl)-1H-pyrazol-4-yl)-6-methylpyridin-2-yl)-3-fluoroquinoline], the EC50 came out at 23 nM.

In the case of `Cc1ccc(-c2cnn(CC3(F)CCCC3)c2)c(-c2ccc3cc(C(F)(F)F)cnc3c2)n1` [Example 14, 7-(3-(1-((1-fluorocyclopentyl)methyl)-1H-pyrazol-4-yl)-6-methylpyridin-2-yl)-3-(trifluoromethyl)quinoline], the EC50 was 30 nM.

On to `Cc1ccc(-c2cnn(CC3(F)CCCC3)c2)c(-c2ccc3c(c2)ncn3C)n1` [Example 16, 5-(3-(1-((1-fluorocyclopentyl)methyl)-1H-pyrazol-4-yl)-6-methylpyridin-2-yl)-1-methyl-1H-benzo[d]imidazole], for which the EC50 amounted to 34 nM.

For `Cc1ccc(-c2cnn(CC3(F)CCCC3)c2)c(-c2ccc3c(c2)C(=O)NC3)n1` [Example 17, 6-(3-(1-((1-fluorocyclopentyl)methyl)-1H-pyrazol-4-yl)-6-methylpyridin-2-yl)isoindolin-1-one], the EC50 amounted to 26 nM.

On to `Cc1ccc(-c2cnn(CC3(F)CCCC3)c2)c(-c2cnc3c(c2)ncn3C)n1` [Example 18, 6-(3-(1-((1-fluorocyclopentyl)methyl)-1H-pyrazol-4-yl)-6-methylpyridin-2-yl)-3-methyl-3H-imidazo[4,5-b]pyridine], for which the EC50 worked out at 187 nM.

On to `Cc1ccc(-c2cnn(CC3(F)CCCC3)c2)c(-c2ccc3c(c2)C(=O)N(CC2CC2)C3)n1` [Example 19, 2-(cyclopropylmethyl)-6-(3-(1-((1-fluorocyclopentyl)methyl)-1H-pyrazol-4-yl)-6-methylpyridin-2-yl)isoindolin-1-one], for which the EC50 came to 20 nM.

In the case of `Cc1ccc(-c2cnn(CC3(F)CCCC3)c2)c(-c2ccc3c(c2)C(=O)N(C2CC2)C3)n1` [Example 20, 2-cyclopropyl-6-(3-(1-((1-fluorocyclopentyl)methyl)-1H-pyrazol-4-yl)-6-methylpyridin-2-yl)isoindolin-1-one], the EC50 worked out at 24 nM.

Consider `Cc1ccc(-c2cnn(CC3(F)CCCC3)c2)c(-c2ccc3cc(F)cnc3c2)n1` [Example 21, 3-fluoro-7-(3-(1-((1-fluorocyclopentyl)methyl)-1H-pyrazol-4-yl)-6-methylpyridin-2-yl)quinoline], for which the EC50 turned out to be 16 nM.

Take `Cc1ccc(-c2cnn(CC3(F)CCCC3)c2F)c(-c2ccc3cccnc3c2)n1` [Example 22, 7-(3-(5-fluoro-1-((1-fluorocyclopentyl)methyl)-1H-pyrazol-4-yl)-6-methylpyridin-2-yl)quinoline]: the EC50 worked out at 15 nM.

As for `Cc1ccc(-c2cnn(CC3(F)CCCC3)c2F)c(-c2cnc3c(c2)ncn3C)n1` [Example 23, 6-(3-(5-fluoro-1-((1-fluorocyclopentyl)methyl)-1H-pyrazol-4-yl)-6-methylpyridin-2-yl)-3-methyl-3H-imidazo[4,5-b]pyridine], the EC50 was 121 nM.

As to `Cc1ccc(-c2cnn(CC3(F)CCCC3)c2F)c(-c2ccc3c(c2)ncn3C)n1` [Example 24], the EC50 worked out at 70 nM.

Take `COc1cc2ccc(-c3nc(C)ccc3-c3cnn(CC45CCC(CC4)C5)c3)cc2nn1` [Example 25, 7-(3-(1-(bicyclo[2.2.1]heptan-1-ylmethyl)-1H-pyrazol-4-yl)-6-methylpyridin-2-yl)-3-methoxycinnoline]: the EC50 stood at 10 nM.

On to `Cc1ccc(-c2cnn(CC34CCC(CC3)C4)c2)c(-c2ccc3cccnc3c2)n1` [Example 26, 7-(3-(1-(bicyclo[2.2.1]heptan-1-ylmethyl)-1H-pyrazol-4-yl)-6-methylpyridin-2-yl)quinoline], for which the EC50 worked out at 10 nM.

In the case of `Cc1ccc(-c2cnn(CC3CCC(F)(F)C3)c2)c(-c2ccc3cccnc3c2)n1` (stereo not drawn) [Example 28, 7-(3-(1-((3,3-difluorocyclopentyl)methyl)-1H-pyrazol-4-yl)-6-methylpyridin-2-yl)quinoline], the EC50 came out at 40 nM.

Turning to `Cc1ccc(-c2cnn(CC3(C)CCCC3)c2)c(-c2ccc3cc(F)cnc3c2)n1` [Example 32, 3-fluoro-7-(6-methyl-3-(1-((1-methylcyclopentyl)methyl)-1H-pyrazol-4-yl)pyridin-2-yl) quinoline], the EC50 was found to be 11 nM.

Turning to `Cc1ccc(-c2cnn(CC3(C)CCCC3)c2)c(-c2ccc3c(c2)C(=O)OC3)n1` [Example 33, 6-(6-methyl-3-(1-((1-methylcyclopentyl)methyl)-1H-pyrazol-4-yl)pyridin-2-yl) isobenzofuran-1(3H)-one], the EC50 is 35 nM.

For the compound `Cc1ccc(-c2cnn(CC3(C)CCCC3)c2)c(-c2ccc3cn(C)nc3c2)n1` [Example 34, 2-methyl-6-(6-methyl-3-(1-((1-methylcyclopentyl)methyl)-1H-pyrazol-4-yl)pyridin-2-yl)-2H-indazole], the EC50 stood at 57 nM.

Take `Cc1ccc(-c2cnn(CC3(C)CCCC3)c2)c(-c2ccc3ccn(C)c(=O)c3c2)n1` [Example 35, 2-methyl-7-(6-methyl-3-(1-((1-methylcyclopentyl)methyl)-1H-pyrazol-4-yl)pyridin-2-yl)isoquinolin-1(2H)-one]: the EC50 is 26 nM.

With `COc1cc2ccc(-c3nc(C)ccc3-c3cnn(C(F)C4CCCC4)c3F)cc2nn1` (stereo not drawn) [Example 36, 7-(3-(1-(cyclopentylfluoromethyl)-5-fluoro-1H-pyrazol-4-yl)-6-methylpyridin-2-yl)-3-methoxycinnoline], the EC50 amounted to 38 nM.

Take `COc1cc2ccc(-c3nc(C)ccc3-c3cnn(CC4CC5C(C4)C5(F)F)c3)cc2nn1` (stereo not drawn) [Example 37, 7-(3-(1-((6,6-difluorobicyclo[3.1.0]hexan-3-yl)methyl)-1H-pyrazol-4-yl)-6-methylpyridin-2-yl)-3-methoxycinnoline]: the EC50 came out at 51 nM.

As for `N#Cc1ccc(-c2cnn(CC3CCCC3)c2)c(-c2ccc3ccnn3c2)n1` [Example 38, 5-(1-(cyclopentylmethyl)-1H-pyrazol-4-yl)-6-(pyrazolo[1,5-a]pyridin-6-yl)picolinonitrile], the EC50 was determined as 13 nM.

On to `Cn1ccc2ccc(-c3nc(C#N)ccc3-c3cnn(CC4CCCC4)c3)cc2c1=O` [Example 39, 5-(1-(cyclopentylmethyl)-1H-pyrazol-4-yl)-6-(2-methyl-1-oxo-1,2-dihydroisoquinolin-7-yl)picolinonitrile], for which the EC50 amounted to 111 nM.

Turning to `N#Cc1ccc(-c2cnn(CC3(F)CCCC3)c2)c(-c2ccc3c(c2)C(=O)N(C2CC2)C3)n1` [Example 40, 6-(2-cyclopropyl-3-oxoisoindolin-5-yl)-5-(1-((1-fluorocyclopentyl)methyl)-1H-pyrazol-4-yl) picolinonitrile], the EC50 is 13 nM.

`CN1Cc2ncc(-c3nc(C#N)ccc3-c3cnn(CC4(F)CCCC4)c3)cc2C1=O` [Example 41, 5-(1-((1-fluorocyclopentyl)methyl)-1H-pyrazol-4-yl)-6-(6-methyl-5-oxo-6,7-dihydro-5H-pyrrolo[3,4-b]pyridin-3-yl)picolinonitrile]: the EC50 came to 45 nM.

For `N#Cc1ccc(-c2cnn(CC3(F)CCCC3)c2)c(-c2ccn3cnnc3c2)n1` [Example 42, 6-([1,2,4]triazolo[4,3-a]pyridin-7-yl)-5-(1-((1-fluorocyclopentyl)methyl)-1H-pyrazol-4-yl)picolinonitrile], the EC50 was determined as 32 nM.
